Data on one compound can be found in publication PMC5218480 (PLoS ONE, 2017).

The structures appear in SMILES notation.

The subject of this experiment is MV-4-11 cells. The experiment can be described thus: Gene expression microarray analysis (Affymetrix PrimeView) and GSEA. The format is cell-based, human. Also noted: RFU PODN (11730768_x_at) / Fold change /veh PODN (11730768_x_at) / RFU LINC00158 (11744669_a_at) / Fold change /veh LINC00158 (11744669_a_at) / RFU DUSP10 (11751237_a_at) / Fold change /veh DUSP10 (11751237_a_at) / RFU ID3 (11757404_x_at) / Fold change /veh ID3 (11757404_x_at) / RFU PLEKHG5 (11737974_s_at) / Fold change /veh PLEKHG5 (11737974_s_at) / RFU LRRC4B (11730491_at) / Fold change /veh LRRC4B (11730491_at) / RFU GIMAP4 (11747438_a_at) / Fold change /veh GIMAP4 (11747438_a_at) / RFU KRT8 (11758183_x_at) / Fold change /veh KRT8 (11758183_x_at) / RFU CNN1 (11734310_a_at) / Fold change /veh CNN1 (11734310_a_at) / RFU VPS37D (11726825_at) / Fold change /veh VPS37D (11726825_at) / RFU C10orf10 (11716522_x_at) / Fold change /veh C10orf10 (11716522_x_at) / RFU KIR2DL2 /// KIR2DL4 /// KIR2DL5A /// KIR2DL5B /// KIR2DS1 /// KIR2DS2 /// KIR2DS3 /// KIR2DS4 /// KIR3DL3 /// KIR3DL3 /// KIR3DS1 (11738374_at) / Fold change /veh KIR2DL2 /// KIR2DL4 /// KIR2DL5A /// KIR2DL5B /// KIR2DS1 /// KIR2DS2 /// KIR2DS3 /// KIR2DS4 /// KIR3DL3 /// KIR3DL3 /// KIR3DS1 (11738374_at) / RFU C1QL1 (11718748_at) / Fold change /veh C1QL1 (11718748_at) / RFU TMPRSS4 (11747572_a_at) / Fold change /veh TMPRSS4 (11747572_a_at) / RFU HAMP (11756126_x_at) / Fold change /veh HAMP (11756126_x_at) / RFU RNFT2 (11725882_a_at) / Fold change /veh RNFT2 (11725882_a_at) / RFU NR4A2 (11747474_a_at) / Fold change /veh NR4A2 (11747474_a_at) / RFU ABCC12 (11746883_a_at) / Fold change /veh ABCC12 (11746883_a_at) / RFU TMEM136 (11760407_x_at) / Fold change /veh TMEM136 (11760407_x_at) / RFU CLDN22 /// WWC2 (11732394_at) / Fold change /veh CLDN22 /// WWC2 (11732394_at) / RFU HLA-DPB1 (11760878_x_at) / Fold change /veh HLA-DPB1 (11760878_x_at) / RFU SPINT1 (11716480_a_at) / Fold change /veh SPINT1 (11716480_a_at) / RFU GAP43 (11754022_s_at) / Fold change /veh GAP43 (11754022_s_at) / RFU A4GNT (11735810_at) / Fold change /veh A4GNT (11735810_at) / RFU PRB3 (11715151_x_at) / Fold change /veh PRB3 (11715151_x_at) / RFU TUBB4B (11761932_at) / Fold change /veh TUBB4B (11761932_at) / RFU CAPN14 (11732068_a_at) / Fold change /veh CAPN14 (11732068_a_at) / RFU TMCC2 (11721928_a_at) / Fold change /veh TMCC2 (11721928_a_at) / RFU IRGQ (11745062_a_at) / Fold change /veh IRGQ (11745062_a_at) / RFU FAM174B (11720279_a_at) / Fold change /veh FAM174B (11720279_a_at) / RFU TMPRSS4 (11748680_a_at) / Fold change /veh TMPRSS4 (11748680_a_at) / RFU FAM212B (11763350_a_at) / Fold change /veh FAM212B (11763350_a_at) / RFU PLEKHG5 (11743358_a_at) / Fold change /veh PLEKHG5 (11743358_a_at) / RFU ZSCAN30 (11745921_a_at) / Fold change /veh ZSCAN30 (11745921_a_at) / RFU CMKLR1 (11741424_a_at) / Fold change /veh CMKLR1 (11741424_a_at) / RFU LOC101060620 /// MAPK8IP1 (11723275_at) / Fold change /veh LOC101060620 /// MAPK8IP1 (11723275_at) / RFU SPTSSB (11747773_x_at) / Fold change /veh SPTSSB (11747773_x_at) / RFU PRSS12 (11739890_at) / Fold change /veh PRSS12 (11739890_at) / RFU BIN1 (11741810_x_at) / Fold change /veh BIN1 (11741810_x_at) / RFU WNT11 (11732464_a_at) / Fold change /veh WNT11 (11732464_a_at) / RFU C10orf10 (11716521_a_at) / Fold change /veh C10orf10 (11716521_a_at) / RFU C5orf56 (11738089_at) / Fold change /veh C5orf56 (11738089_at) / RFU CYB561 (11721691_x_at) / Fold change /veh CYB561 (11721691_x_at) / RFU ANKRD19P (11752326_a_at) / Fold change /veh ANKRD19P (11752326_a_at) / RFU OR2T12 /// OR2T33 /// OR2T8 (11738714_s_at) / Fold change /veh OR2T12 /// OR2T33 /// OR2T8 (11738714_s_at) / RFU VCAN (11748164_a_at) / Fold change /veh VCAN (11748164_a_at) / RFU JSRP1 (11732532_at) / Fold change /veh JSRP1 (11732532_at) / RFU KRTAP10-11 (11738290_x_at) / Fold change /veh KRTAP10-11 (11738290_x_at) / RFU MYO3A (11730013_a_at) / Fold change /veh MYO3A (11730013_a_at) / RFU EBF3 (11725865_a_at) / Fold change /veh EBF3 (11725865_a_at) / RFU CAMK2N1 (11719241_x_at) / Fold change /veh CAMK2N1 (11719241_x_at) / RFU C5orf56 (11738088_a_at) / Fold change /veh C5orf56 (11738088_a_at) / RFU OLFML3 (11715873_a_at) / Fold change /veh OLFML3 (11715873_a_at) / RFU LOC100653217 /// NTM (11731650_a_at) / Fold change /veh LOC100653217 /// NTM (11731650_a_at) / RFU MAPK11 (11762145_a_at) / Fold change /veh MAPK11 (11762145_a_at) / RFU FIZ1 (11724087_x_at) / Fold change /veh FIZ1 (11724087_x_at) / RFU OASL (11726364_x_at) / Fold change /veh OASL (11726364_x_at) / RFU SOX15 (11748057_x_at) / Fold change /veh SOX15 (11748057_x_at) / RFU CD79A (11719716_a_at) / Fold change /veh CD79A (11719716_a_at) / RFU HIST1H1D (11736915_at) / Fold change /veh HIST1H1D (11736915_at) / RFU CASKIN2 (11723855_a_at) / Fold change /veh CASKIN2 (11723855_a_at) / RFU LOC730098 (11760151_x_at) / Fold change /veh LOC730098 (11760151_x_at) / RFU OR4N2 (11742367_at) / Fold change /veh OR4N2 (11742367_at) / RFU PRRT2 (11749266_a_at) / Fold change /veh PRRT2 (11749266_a_at) / RFU SNX32 (11753110_a_at) / Fold change /veh SNX32 (11753110_a_at) / RFU CDHR5 (11726645_a_at) / Fold change /veh CDHR5 (11726645_a_at) / RFU RCAN1 (11760418_a_at) / Fold change /veh RCAN1 (11760418_a_at) / RFU FAM167A (11723789_a_at) / Fold change /veh FAM167A (11723789_a_at) / RFU FAM26E (11764081_at) / Fold change /veh FAM26E (11764081_at) / RFU ISYNA1 (11749810_s_at) / Fold change /veh ISYNA1 (11749810_s_at) / RFU ACY1 (11761880_at) / Fold change /veh ACY1 (11761880_at) / RFU 11764098_at / Fold change /veh 11764098_at / RFU SAMD14 (11745864_x_at) / Fold change /veh SAMD14 (11745864_x_at) / RFU NPB (11741838_a_at) / Fold change /veh NPB (11741838_a_at) / RFU TMPRSS6 (11731388_a_at) / Fold change /veh TMPRSS6 (11731388_a_at) / RFU KRTAP10-2 (11738614_at) / Fold change /veh KRTAP10-2 (11738614_at) / RFU ARHGAP8 /// PRR5-ARHGAP8 (11727945_x_at) / Fold change /veh ARHGAP8 /// PRR5-ARHGAP8 (11727945_x_at) / RFU KRTAP5-7 /// NADSYN1 (11734609_at) / Fold change /veh KRTAP5-7 /// NADSYN1 (11734609_at) / RFU RASL12 (11751679_a_at) / Fold change /veh RASL12 (11751679_a_at) / RFU CDKN2B (11736163_a_at) / Fold change /veh CDKN2B (11736163_a_at) / RFU PRF1 (11729649_at) / Fold change /veh PRF1 (11729649_at) / RFU, ZNF638 /// ZNF638-IT1 / Fold change vs veh, ZNF638 /// ZNF638-IT1 / RFU, PANK3 / Fold change vs veh, PANK3 / RFU, SH3YL1 / Fold change vs veh, SH3YL1 / RFU, ZEB2 / Fold change vs veh, ZEB2 / RFU, NRIP1 / Fold change vs veh, NRIP1 / RFU, PTTG1IP / Fold change vs veh, PTTG1IP / RFU, CAPN2 / Fold change vs veh, CAPN2 / RFU, MED14 / Fold change vs veh, MED14 / RFU, SNORA58 / Fold change vs veh, SNORA58 / RFU, C1orf63 / Fold change vs veh, C1orf63 / RFU, LRRFIP1 / Fold change vs veh, LRRFIP1 / RFU, NDUFAF7 / Fold change vs veh, NDUFAF7 / RFU, SLC12A2 / Fold change vs veh, SLC12A2 / RFU, IBTK / Fold change vs veh, IBTK / RFU, ESF1 / Fold change vs veh, ESF1 / Fold change vs veh, TMEM50B / RFU, TAOK1 / Fold change vs veh, TAOK1 / RFU, ACBD3 / Fold change vs veh, ACBD3 / RFU, TMA16 / Fold change vs veh, TMA16 / RFU, RWDD3 / Fold change vs veh, RWDD3 / RFU, BCAT1 / Fold change vs veh, BCAT1 / RFU, EDEM3 / Fold change vs veh, EDEM3 / RFU, TMEM33 / Fold change vs veh, TMEM33 / RFU, WDR75 / Fold change vs veh, WDR75 / RFU, AHCTF1 / Fold change vs veh, AHCTF1 / RFU, TFRC / Fold change vs veh, TFRC / RFU, ZDHHC17 / Fold change vs veh, ZDHHC17 / RFU, NOM1 / Fold change vs veh, NOM1 / RFU, ARL8B / Fold change vs veh, ARL8B / RFU, ZBTB11 / Fold change vs veh, ZBTB11 / RFU, TAMM41 / Fold change vs veh, TAMM41 / RFU, KIAA1704 /// LOC100996395 / Fold change vs veh, KIAA1704 /// LOC100996395 / RFU, ING1 / Fold change vs veh, ING1 / RFU, TRMT61B / Fold change vs veh, TRMT61B / RFU, FUBP3 / Fold change vs veh, FUBP3 / RFU, TP53 / Fold change vs veh, TP53 / RFU, TNKS2 / Fold change vs veh, TNKS2 / RFU, ZFP14 / Fold change vs veh, ZFP14 / RFU, ACTR2 / Fold change vs veh, ACTR2 / RFU, PPP3R1 / Fold change vs veh, PPP3R1 / RFU, PIK3R1 / Fold change vs veh, PIK3R1 / RFU, HNRNPA1 / Fold change vs veh, HNRNPA1 / RFU, RNF170 / Fold change vs veh, RNF170 / RFU, ZNF28 / Fold change vs veh, ZNF28 / RFU, RNGTT / Fold change vs veh, RNGTT / RFU, OGT / Fold change vs veh, OGT / RFU, BRD1 / Fold change vs veh, BRD1 / RFU, MARS / Fold change vs veh, MARS / RFU, ZNF655 / Fold change vs veh, ZNF655 / RFU, FAHD1 / Fold change vs veh, FAHD1 / RFU, BDP1 / Fold change vs veh, BDP1 / RFU, LRRCC1 / Fold change vs veh, LRRCC1 / RFU, ARID1A / Fold change vs veh, ARID1A / RFU, ZNF146 / Fold change vs veh, ZNF146 / RFU, ZNF330 / Fold change vs veh, ZNF330 / RFU, GPN3 / Fold change vs veh, GPN3 / RFU, C9orf123 / Fold change vs veh, C9orf123 / RFU, N4BP2L2 / Fold change vs veh, N4BP2L2 / RFU, ARFIP1 / Fold change vs veh, ARFIP1 / RFU, FAM179B / Fold change vs veh, FAM179B / RFU, BCL10 / Fold change vs veh, BCL10 / RFU, UHRF1BP1L / Fold change vs veh, UHRF1BP1L / RFU, BET1 / Fold change vs veh, BET1 / RFU, CNOT2 / Fold change vs veh, CNOT2 / RFU, ZNF268 / Fold change vs veh, ZNF268 / Fold change vs veh, ZNF507 / RFU, DGCR2 / Fold change vs veh, DGCR2 / RFU, WDSUB1 / Fold change vs veh, WDSUB1 / Fold change vs veh, HSP90B1 /// MIR3652 / RFU, ADSS / Fold change vs veh, ADSS / RFU, GK / Fold change vs veh, GK / RFU, ZNF148 / Fold change vs veh, ZNF148 / RFU, TAF9 / Fold change vs veh, TAF9 / RFU, SLC1A5 / Fold change vs veh, SLC1A5 / RFU, SLMO2 / Fold change vs veh, SLMO2 / RFU, ABCC4 / Fold change vs veh, ABCC4 / RFU, LOC101060439 /// RAP1B / Fold change vs veh, LOC101060439 /// RAP1B / RFU, RFX7 / Fold change vs veh, RFX7 / RFU, GTPBP10 / Fold change vs veh, GTPBP10 / RFU, CNEP1R1 / Fold change vs veh, CNEP1R1 / RFU, BIVM-ERCC5 /// ERCC5 / Fold change vs veh, BIVM-ERCC5 /// ERCC5 / RFU, ILF3 / Fold change vs veh, ILF3 / RFU 11762660_at / Fold change /veh 11762660_at / RFU VCAN (11757783_s_at) / Fold change /veh VCAN (11757783_s_at) / RFU DDX43 (11728927_at) / Fold change /veh DDX43 (11728927_at) / RFU KRT8 (11758188_x_at) / Fold change /veh KRT8 (11758188_x_at) / RFU NKD1 (11759106_at) / Fold change /veh NKD1 (11759106_at) / RFU SRD5A1 (11742802_a_at) / Fold change /veh SRD5A1 (11742802_a_at) / RFU TPSAB1 /// TPSB2 (11721975_s_at) / Fold change /veh TPSAB1 /// TPSB2 (11721975_s_at) / RFU GSTM3 (11746129_a_at) / Fold change /veh GSTM3 (11746129_a_at) / RFU IL23R (11737362_x_at) / Fold change /veh IL23R (11737362_x_at) / RFU TMEM51 (11727254_a_at) / Fold change /veh TMEM51 (11727254_a_at) / RFU PIWIL2 (11732686_x_at) / Fold change /veh PIWIL2 (11732686_x_at) / RFU ORM1 (11744905_x_at) / Fold change /veh ORM1 (11744905_x_at) / RFU CCDC152 (11743942_at) / Fold change /veh CCDC152 (11743942_at) / RFU ECM1 (11717891_a_at) / Fold change /veh ECM1 (11717891_a_at) / RFU IL23R (11748794_a_at) / Fold change /veh IL23R (11748794_a_at) / RFU TNFAIP8L3 (11732012_x_at) / Fold change /veh TNFAIP8L3 (11732012_x_at) / RFU MBOAT4 (11741988_at) / Fold change /veh MBOAT4 (11741988_at) / RFU 11764193_at / Fold change /veh 11764193_at / RFU TMEM53 (11763286_at) / Fold change /veh TMEM53 (11763286_at) / RFU MAGEB2 (11727129_at) / Fold change /veh MAGEB2 (11727129_at) / RFU TMEM200A (11744735_a_at) / Fold change /veh TMEM200A (11744735_a_at) / RFU CCDC152 (11751479_a_at) / Fold change /veh CCDC152 (11751479_a_at) / RFU FAM211A (11726209_a_at) / Fold change /veh FAM211A (11726209_a_at) / RFU RGS16 (11746705_a_at) / Fold change /veh RGS16 (11746705_a_at) / RFU VCAN (11755009_s_at) / Fold change /veh VCAN (11755009_s_at) / RFU RHOB (11743442_s_at) / Fold change /veh RHOB (11743442_s_at) / RFU RGS16 (11720943_a_at) / Fold change /veh RGS16 (11720943_a_at) / RFU RGS16 (11720944_at) / Fold change /veh RGS16 (11720944_at) / RFU, VPS4B / Fold change vs veh, VPS4B / RFU, CREB1 / Fold change vs veh, CREB1 / RFU, DNAJC13 / Fold change vs veh, DNAJC13 / RFU, GNAQ / Fold change vs veh, GNAQ / RFU, CDK5R1 / Fold change vs veh, CDK5R1 / RFU, ZRANB3 / Fold change vs veh, ZRANB3 / RFU, CUL4A / Fold change vs veh, CUL4A / RFU, CCNY / Fold change vs veh, CCNY / RFU, UFL1 / Fold change vs veh, UFL1 / RFU, COG3 / Fold change vs veh, COG3 / RFU, DIAPH2 / Fold change vs veh, DIAPH2 / RFU, SKA2 / Fold change vs veh, SKA2 / RFU, AFF3 / Fold change vs veh, AFF3 / RFU, LMF1 / Fold change vs veh, LMF1 / RFU, IPO11 / Fold change vs veh, IPO11 / RFU, DFFB / Fold change vs veh, DFFB / RFU, FOXP1 / Fold change vs veh, FOXP1 / RFU, CARD8 / Fold change vs veh, CARD8 / RFU, STRN3 / Fold change vs veh, STRN3 / RFU, ADK / Fold change vs veh, ADK / RFU, RASSF2 / Fold change vs veh, RASSF2 / RFU, WIPF1 / Fold change vs veh, WIPF1 / RFU, LARP1B / Fold change vs veh, LARP1B / RFU, RASA1 / Fold change vs veh, RASA1 / RFU, RB1 / Fold change vs veh, RB1 / RFU, PPFIA1 / Fold change vs veh, PPFIA1 / RFU, MAT2A / Fold change vs veh, MAT2A / RFU, CCT5 / Fold change vs veh, CCT5 / RFU, WDR92 / Fold change vs veh, WDR92 / RFU, CUX1 / Fold change vs veh, CUX1 / RFU, TTC7A / Fold change vs veh, TTC7A / RFU, TMEM135 / Fold change vs veh, TMEM135 / RFU, DEPTOR / Fold change vs veh, DEPTOR / RFU, CPM / Fold change vs veh, CPM / RFU, DNAJB6 / Fold change vs veh, DNAJB6 / RFU, CACNA2D3 / Fold change vs veh, CACNA2D3 / RFU, DTX4 / Fold change vs veh, DTX4 / RFU, TFCP2 / Fold change vs veh, TFCP2 / RFU, GMCL1 /// GMCL1P1 / Fold change vs veh, GMCL1 /// GMCL1P1 / RFU, AEBP2 / Fold change vs veh, AEBP2 / RFU, SNHG1 /// SNORD22 /// SNORD25 /// SNORD26 /// SNORD27 /// SNORD28 /// SNORD29 /// SNORD31 / Fold change vs veh, SNHG1 /// SNORD22 /// SNORD25 /// SNORD26 /// SNORD27 /// SNORD28 /// SNORD29 /// SNORD31 / Fold change (Aza/veh), C12orf56 (ProbeSet 11735607_a_at) / Fold change (ACY-1035/veh), C12orf56 (ProbeSet 11735607_a_at) / Fold change (Aza/veh), FGFR1OP (ProbeSet 11751329_s_at) / Fold change (ACY-1035/veh), FGFR1OP (ProbeSet 11751329_s_at) / Fold change (Aza/veh), VPS36 (ProbeSet 11739960_a_at) / Fold change (ACY-1035/veh), VPS36 (ProbeSet 11739960_a_at) / RFU SYPL1 (11715823_x_at) / Fold change /veh SYPL1 (11715823_x_at) / RFU IGFBP7 (11715501_s_at) / Fold change /veh IGFBP7 (11715501_s_at) / RFU REEP3 (11722064_at) / Fold change /veh REEP3 (11722064_at) / RFU IGLL1 (11728026_x_at) / Fold change /veh IGLL1 (11728026_x_at): dose or concentration left out as unconfirmed. The settings on record: ProbeSet 11728879_at; LIST B.

As for `Nc1ncn([C@@H]2O[C@H](CO)[C@@H](O)[C@H]2O)c(=O)n1` [azacitidine], the “Fold change vs veh, PPP3R1” value turned out to be 0.88.
